# Results reported in ChEMBL document CHEMBL4257571, “Discovery of 5-(2-chloro-4'-(1H-imidazol-1-yl)-[1,1'-biphenyl]-4-yl)-1H-tetrazole as potent and orally efficacious S-nitrosoglutathione reductase (GSNOR) inhibitors for the potential treatment of COPD” (Bioorg Med Chem Lett, 2018).
# Tests used:
# [1] = biological target: T1, Alcohol dehydrogenase class-3 (Homo sapiens, UniProt P11766); assay: Inhibition of human GSNOR assessed as reduction in NADH consumption after 3 mins by spectrophotometric analysis
# Target sequence in this assay (P11766 whole entry): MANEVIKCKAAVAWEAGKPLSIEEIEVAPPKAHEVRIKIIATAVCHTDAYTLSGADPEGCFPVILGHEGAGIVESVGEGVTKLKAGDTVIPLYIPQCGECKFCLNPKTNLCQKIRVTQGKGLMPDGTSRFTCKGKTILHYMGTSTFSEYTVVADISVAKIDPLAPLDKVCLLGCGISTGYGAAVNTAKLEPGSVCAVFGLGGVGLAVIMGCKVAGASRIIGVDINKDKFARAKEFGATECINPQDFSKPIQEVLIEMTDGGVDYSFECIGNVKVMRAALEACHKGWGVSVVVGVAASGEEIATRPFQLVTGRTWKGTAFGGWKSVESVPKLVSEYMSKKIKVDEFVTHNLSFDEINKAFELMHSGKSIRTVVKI
# [2] = biological target: T1, Alcohol dehydrogenase class-3; assay: Inhibition of human GSNOR assessed as reduction in NADH consumption at 10 uM after 3 mins by spectrophotometric analysis relative to control
# Target sequence in this assay (P11766 2-374 limits assumed): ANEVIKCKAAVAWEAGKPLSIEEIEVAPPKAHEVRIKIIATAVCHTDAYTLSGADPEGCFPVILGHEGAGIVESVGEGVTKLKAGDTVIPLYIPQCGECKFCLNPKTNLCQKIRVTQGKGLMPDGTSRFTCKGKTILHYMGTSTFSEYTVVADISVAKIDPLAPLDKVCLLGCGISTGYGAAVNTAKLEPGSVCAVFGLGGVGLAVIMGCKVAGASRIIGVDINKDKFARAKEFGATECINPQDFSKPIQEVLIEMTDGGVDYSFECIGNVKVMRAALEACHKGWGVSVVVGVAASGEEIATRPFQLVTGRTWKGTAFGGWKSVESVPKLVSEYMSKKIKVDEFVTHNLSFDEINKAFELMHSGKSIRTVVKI
# CYP2C9 = CYP2C9 (Homo sapiens, UniProt P11712); assay: Inhibition of CYP2C9 in human liver microsomes at 10 uM after 20 mins in presence of NADPH by LC/MS/MS analysis relative to control; format: ADME
# CYP2D6 = CYP2D6 (Homo sapiens, UniProt P10635); assay: (§1) Inhibition of CYP2D6 in human liver microsomes at 10 uM after 20 mins in presence of NADPH by LC/MS/MS analysis relative to control; format: ADME; conditions: liver microsomes
# CYP3A4 = CYP3A4 (Homo sapiens, UniProt P08684); assay: Inhibition of CYP3A4 in human liver microsomes at 10 uM after 20 mins in presence of NADPH by LC/MS/MS analysis relative to control; format: ADME; conditions: liver microsomes
# CYP1A2 = biological target: T2, CYP1A2 (Homo sapiens, UniProt P05177); assay: Inhibition of CYP1A2 in human liver microsomes at 10 uM after 20 mins in presence of NADPH by LC/MS/MS analysis relative to control; format: ADME; conditions: liver microsomes
# T2 sequence (P05177 whole entry): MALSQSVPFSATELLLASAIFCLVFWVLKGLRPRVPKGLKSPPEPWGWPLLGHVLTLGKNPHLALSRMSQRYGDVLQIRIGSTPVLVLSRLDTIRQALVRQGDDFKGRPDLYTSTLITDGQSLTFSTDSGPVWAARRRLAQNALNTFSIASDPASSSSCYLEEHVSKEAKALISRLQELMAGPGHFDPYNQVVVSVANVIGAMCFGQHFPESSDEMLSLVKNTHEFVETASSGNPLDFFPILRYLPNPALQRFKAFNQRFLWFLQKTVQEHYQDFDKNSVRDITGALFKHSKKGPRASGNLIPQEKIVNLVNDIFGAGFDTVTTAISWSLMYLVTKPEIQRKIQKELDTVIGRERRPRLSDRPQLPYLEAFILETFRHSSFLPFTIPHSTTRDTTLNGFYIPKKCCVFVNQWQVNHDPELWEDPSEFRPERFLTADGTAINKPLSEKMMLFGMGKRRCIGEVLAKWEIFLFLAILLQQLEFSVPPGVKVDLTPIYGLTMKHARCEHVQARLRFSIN
# [3] = Metabolic stability of rat liver microsomes assessed as parent compound remaining at 0.1 uM after 60 mins in presence of NADPH by LC/MS/MS analysis; format: ADME, microsome; conditions: read-out: Stability
# CYP2C19 = CYP2C19 (Homo sapiens, UniProt P33261); assay: Inhibition of CYP2C19 in human liver microsomes at 10 uM after 40 mins in presence of NADPH by LC/MS/MS analysis relative to control; format: ADME
# [4] = Metabolic stability of human liver microsomes assessed as parent compound remaining at 0.1 uM after 60 mins in presence of NADPH by LC/MS/MS analysis; format: ADME, microsome; conditions: read-out: Stability
# [5] = Metabolic stability of mouse liver microsomes assessed as parent compound remaining at 0.1 uM after 60 mins in presence of NADPH by LC/MS/MS analysis; format: ADME, microsome; conditions: read-out: Stability
# Cytochrome P450 2D6 = Cytochrome P450 2D6 (Homo sapiens, UniProt P10635); assay: as §1; format: ADME; conditions: microsomes, 20 min, 10 µM
# Mus musculus [6] = assay: Anti-inflammatory activity in C57BL/6 mouse model of cigarette smoke induced chronic obstructive pulmonary disease assessed as macrophages level in bronchoalveolar lavage at 5 mg/kg, po BID administered 1 hr prior to both smoke exposure for 7 days by Leishman's staining based assay; format: functional
# Mus musculus [7] = assay: Anti-inflammatory activity in C57BL/6 mouse model of cigarette smoke induced chronic obstructive pulmonary disease assessed as neutrophil level in bronchoalveolar lavage at 5 mg/kg, po BID administered 1 hr prior to both smoke exposure for 7 days by Leishman's staining based assay; format: functional
# Mus musculus [8] = assay: Anti-inflammatory activity in C57BL/6 mouse model of cigarette smoke induced chronic obstructive pulmonary disease assessed as total leukocyte count in bronchoalveolar lavage at 5 mg/kg, po BID administered 1 hr prior to both smoke exposure for 7 days by hemocytometry; format: functional
# Sequence of CYP3A4 (P08684 whole entry): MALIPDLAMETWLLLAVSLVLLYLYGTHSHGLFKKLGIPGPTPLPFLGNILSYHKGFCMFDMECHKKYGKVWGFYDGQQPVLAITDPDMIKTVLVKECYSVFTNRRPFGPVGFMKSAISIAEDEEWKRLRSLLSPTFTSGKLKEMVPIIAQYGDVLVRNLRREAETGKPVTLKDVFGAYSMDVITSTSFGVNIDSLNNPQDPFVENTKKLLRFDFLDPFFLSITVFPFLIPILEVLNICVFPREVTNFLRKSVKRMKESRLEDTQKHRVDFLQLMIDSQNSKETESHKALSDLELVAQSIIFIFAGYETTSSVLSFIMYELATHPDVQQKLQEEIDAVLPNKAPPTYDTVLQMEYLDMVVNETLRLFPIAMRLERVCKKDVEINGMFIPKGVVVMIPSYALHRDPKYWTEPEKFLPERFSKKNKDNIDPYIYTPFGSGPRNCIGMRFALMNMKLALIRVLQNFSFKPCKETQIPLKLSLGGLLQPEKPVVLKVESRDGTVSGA
# Sequence of CYP2C19 (P33261 whole entry): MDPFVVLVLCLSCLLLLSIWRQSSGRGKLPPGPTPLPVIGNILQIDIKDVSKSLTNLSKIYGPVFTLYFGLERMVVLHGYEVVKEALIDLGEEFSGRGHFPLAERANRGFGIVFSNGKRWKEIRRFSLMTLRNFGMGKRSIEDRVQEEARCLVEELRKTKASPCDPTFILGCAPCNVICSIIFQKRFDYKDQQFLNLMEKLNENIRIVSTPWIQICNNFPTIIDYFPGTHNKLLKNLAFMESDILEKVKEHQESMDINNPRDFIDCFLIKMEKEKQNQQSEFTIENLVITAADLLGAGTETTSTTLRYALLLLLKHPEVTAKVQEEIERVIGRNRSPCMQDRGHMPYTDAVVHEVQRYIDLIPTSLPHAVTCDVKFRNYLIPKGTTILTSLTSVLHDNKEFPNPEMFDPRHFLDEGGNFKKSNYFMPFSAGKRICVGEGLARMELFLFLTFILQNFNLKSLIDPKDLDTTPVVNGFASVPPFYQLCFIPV
# Sequence of CYP2C9 (P11712 whole entry): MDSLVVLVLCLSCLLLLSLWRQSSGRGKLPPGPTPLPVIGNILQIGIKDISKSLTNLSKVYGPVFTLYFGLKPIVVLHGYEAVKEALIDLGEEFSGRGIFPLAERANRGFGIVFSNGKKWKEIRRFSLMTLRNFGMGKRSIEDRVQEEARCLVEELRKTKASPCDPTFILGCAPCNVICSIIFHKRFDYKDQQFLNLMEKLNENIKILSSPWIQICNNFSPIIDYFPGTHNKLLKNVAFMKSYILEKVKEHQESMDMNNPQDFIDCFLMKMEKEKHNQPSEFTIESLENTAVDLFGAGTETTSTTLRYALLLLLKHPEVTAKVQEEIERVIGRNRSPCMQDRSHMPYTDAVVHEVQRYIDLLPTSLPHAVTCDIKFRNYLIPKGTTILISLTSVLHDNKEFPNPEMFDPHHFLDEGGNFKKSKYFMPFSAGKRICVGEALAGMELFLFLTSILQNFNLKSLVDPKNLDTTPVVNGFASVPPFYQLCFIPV
# Sequence of CYP2D6 (P10635 whole entry): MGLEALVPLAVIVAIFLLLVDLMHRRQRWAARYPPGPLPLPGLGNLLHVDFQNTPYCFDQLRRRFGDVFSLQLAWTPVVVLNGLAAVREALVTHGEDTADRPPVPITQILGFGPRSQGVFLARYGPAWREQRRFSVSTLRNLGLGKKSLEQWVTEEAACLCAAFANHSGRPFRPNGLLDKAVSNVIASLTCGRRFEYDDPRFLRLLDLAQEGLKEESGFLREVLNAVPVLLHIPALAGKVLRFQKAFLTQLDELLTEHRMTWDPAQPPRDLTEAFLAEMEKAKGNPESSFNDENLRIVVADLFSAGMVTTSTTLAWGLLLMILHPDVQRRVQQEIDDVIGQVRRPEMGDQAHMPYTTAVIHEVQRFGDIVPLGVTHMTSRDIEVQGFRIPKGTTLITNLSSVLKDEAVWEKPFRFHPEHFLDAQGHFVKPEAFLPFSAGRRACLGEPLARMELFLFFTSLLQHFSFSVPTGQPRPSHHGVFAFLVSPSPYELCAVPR
# Sequence of Cytochrome P450 2D6 (P10635 whole entry): as above
smiles,measurement,setting,value
Cc1cc(-n2ccnc2)cnc1-c1ccc(C(=O)O)cc1F,IC50,[1],36 nM
Cc1cc(-c2nnn[nH]2)ccc1-c1ccc(-n2ccnc2)cn1,IC50,[1],44 nM
Cc1cc(C(=O)O)ccc1-c1ccc(-n2ccnc2)cc1,IC50,[1],29 nM
NC(=O)c1ccc(-c2ccc(-n3ccnc3)cc2)cc1,inhibition,[2],60%
Cc1cc(-n2ccnc2)ccc1-c1ccc(C(=O)O)cc1,"inhibition at 20 min, 10 µM",CYP2C9,37%
same,"inhibition at 20 min, 10 µM",CYP2D6,14%
same,"inhibition at 20 min, 10 µM",CYP3A4,4%
same,IC50,[1],20 nM
same,"inhibition at 20 min, 10 µM",CYP1A2,22%
same,"remaining at 1 h, 0.1 µM",[3],64%
same,"inhibition at 40 min, 10 µM",CYP2C19,18%
same,"remaining at 1 h, 0.1 µM",[4],100%
same,"remaining at 1 h, 0.1 µM",[5],48%
O=C(O)c1ccc(-c2ccc(O)cc2)cc1,inhibition,[2],25%
Cc1cc(-n2ccnc2)cnc1-c1ccc(C(=O)O)cc1,IC50,[1],41 nM
Clc1cc(-c2nnn[nH]2)ccc1-c1ccc(-n2ccnc2)cn1,IC50,[1],308 nM
Fc1cc(-c2nnn[nH]2)ccc1-c1ccc(-n2ccnc2)cc1,IC50,[1],20 nM
Cc1cc(-c2nnn[nH]2)ccc1-c1ccc(-n2ccnc2)cc1,IC50,[1],26 nM
N#Cc1ccc(-c2ccc(-n3ccnc3)cc2)cc1,inhibition,[2],10%
CCc1cc(-n2ccnc2)cnc1-c1ccc(-c2nnn[nH]2)cc1F,IC50,[1],62 nM
Clc1cc(-c2nn[nH]n2)ccc1-c1ccc(-n2cnnn2)cc1,inhibition,[2],36%
Cc1cc(-n2ccnc2)cnc1-c1ccc(-c2nnn[nH]2)cc1,"inhibition at 20 min, 10 µM",CYP2C9,61%
same,"inhibition at 20 min, 10 µM",CYP2D6,9%
same,"inhibition at 20 min, 10 µM",CYP3A4,17%
same,IC50,[1],17 nM
same,"inhibition at 20 min, 10 µM",CYP1A2,1%
same,"remaining at 1 h, 0.1 µM",[3],50%
same,"inhibition at 40 min, 10 µM",CYP2C19,69%
same,"remaining at 1 h, 0.1 µM",[4],94%
same,"remaining at 1 h, 0.1 µM",[5],17%
CCc1cc(-n2ccnc2C)ccc1-c1ccc(-c2nnn[nH]2)cc1,"inhibition at 20 min, 10 µM",CYP2C9,48%
same,inhibition (INH),Cytochrome P450 2D6,Not Active
same,"inhibition at 20 min, 10 µM",CYP3A4,18%
same,IC50,[1],24 nM
same,"inhibition at 20 min, 10 µM",CYP1A2,13%
same,"remaining at 1 h, 0.1 µM",[3],99%
same,"inhibition at 40 min, 10 µM",CYP2C19,67%
same,"remaining at 1 h, 0.1 µM",[4],5%
same,"remaining at 1 h, 0.1 µM",[5],87%
O=c1nc(-c2ccc(-c3ccc(-n4ccnc4)cc3)cc2)[nH]o1,IC50,[1],152 nM
O=C(O)c1ccc(-c2ccc(-n3ccnc3)cc2)c(F)c1,IC50,[1],29 nM
c1cc(-c2nn[nH]n2)ccc1-c1ccc(-c2nnn[nH]2)cc1,IC50,[1],3280 nM
c1cn(-c2ccc(-c3ccc(-c4nnn[nH]4)cc3)nc2)cn1,IC50,[1],32 nM
O=C(Nc1c(Cl)cncc1Cl)c1ccc(OC(F)F)c(OCC2CC2)c1 [ROFLUMILAST],Activity,Mus musculus [6],75%
same,Activity,Mus musculus [7],40%
same,Activity,Mus musculus [8],58%
O=C(O)c1ccc(-c2ccc(-n3ccnc3)cc2)cc1,IC50,[1],62 nM
